Reference: PMC11345332, “Expression, Purification and Biophysical Characterisation of Klebsiella Pneumoniae Protein Adenylyltransferase: A Systematic Integration of Empirical and Computational Modelling Approaches” (The Protein Journal, 2024)

Tests used:
[1] = molecular target: T1, KpPrAT (Klebsiella pneumoniae protein adenylyltransferase) (Klebsiella variicola, UniProt B5XQE2); experiment: fluorescence emission blue shift and intensity increase; format: binding; parameters: gene ydiU; synthetic gene in pET-11a (NdeI/BamHI), N-terminal His6 tag kept (no cleavage described), E. coli T7 cells, Ni-IMAC, about 54 kDa; conditions: 10 µM mant-ATP, 2 µM protein, 20 mM sodium phosphate pH 7.4, 20 °C, with or without 5 mM MgCl2; labelled compound
T1 sequence (B5XQE2 whole entry): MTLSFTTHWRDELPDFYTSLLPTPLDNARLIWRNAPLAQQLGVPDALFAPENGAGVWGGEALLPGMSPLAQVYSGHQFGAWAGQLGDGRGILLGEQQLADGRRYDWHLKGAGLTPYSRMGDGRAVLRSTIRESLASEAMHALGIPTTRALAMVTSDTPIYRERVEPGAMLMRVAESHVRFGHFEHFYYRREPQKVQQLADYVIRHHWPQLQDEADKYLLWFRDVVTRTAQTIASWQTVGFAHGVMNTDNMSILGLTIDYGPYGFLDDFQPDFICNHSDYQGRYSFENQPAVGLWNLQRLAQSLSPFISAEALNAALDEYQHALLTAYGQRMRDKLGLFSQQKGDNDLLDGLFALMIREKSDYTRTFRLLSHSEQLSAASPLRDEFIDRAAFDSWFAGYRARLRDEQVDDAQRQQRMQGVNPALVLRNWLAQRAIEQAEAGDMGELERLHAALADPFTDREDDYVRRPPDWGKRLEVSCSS

[2] = molecular target: T1, KpPrAT (Klebsiella pneumoniae protein adenylyltransferase); experiment: biochemical; parameters: gene ydiU
Excerpt: isothermal titration calorimetry on KpPrAT (Klebsiella pneumoniae protein adenylyltransferase)

Compound	fluorescence emission blue shift and intensity increase [1]	Kd [2]
CNc1ccccc1C(=O)O[C@H]1[C@@H](O)[C@H](n2cnc3c(N)ncnc32)O[C@@H]1COP(=O)(O)OP(=O)(O)OP(=O)(O)O [mant-ATP, 2ʹ/3’-O-(N-Methylanthraniloyl) adenosine 5ʹ-triphosphate]	An increase in fluorescence intensity and blue shift occurs when KpPrAT binds to mant-ATP	
Nc1ncnc2c1ncn2[C@@H]1O[C@H](COP(=O)(O)OP(=O)(O)OP(=O)(O)O)[C@@H](O)[C@H]1O [ATP]		2930 nM
